In ChEMBL document CHEMBL4673207, “Recent advances in the discovery of potent and selective HDAC6 inhibitors” (Eur J Med Chem, 2018):

What was measured:
[1] = target: T1, Protein deacetylase HDAC6 (Homo sapiens, UniProt Q9UBN7); assay: Inhibition of recombinant human HDAC6 expressed in baculovirus infected sf9 cells using fluor-de-Lys-SIRT1 as substrate by fluorescence method
T1 sequence (Q9UBN7 whole entry): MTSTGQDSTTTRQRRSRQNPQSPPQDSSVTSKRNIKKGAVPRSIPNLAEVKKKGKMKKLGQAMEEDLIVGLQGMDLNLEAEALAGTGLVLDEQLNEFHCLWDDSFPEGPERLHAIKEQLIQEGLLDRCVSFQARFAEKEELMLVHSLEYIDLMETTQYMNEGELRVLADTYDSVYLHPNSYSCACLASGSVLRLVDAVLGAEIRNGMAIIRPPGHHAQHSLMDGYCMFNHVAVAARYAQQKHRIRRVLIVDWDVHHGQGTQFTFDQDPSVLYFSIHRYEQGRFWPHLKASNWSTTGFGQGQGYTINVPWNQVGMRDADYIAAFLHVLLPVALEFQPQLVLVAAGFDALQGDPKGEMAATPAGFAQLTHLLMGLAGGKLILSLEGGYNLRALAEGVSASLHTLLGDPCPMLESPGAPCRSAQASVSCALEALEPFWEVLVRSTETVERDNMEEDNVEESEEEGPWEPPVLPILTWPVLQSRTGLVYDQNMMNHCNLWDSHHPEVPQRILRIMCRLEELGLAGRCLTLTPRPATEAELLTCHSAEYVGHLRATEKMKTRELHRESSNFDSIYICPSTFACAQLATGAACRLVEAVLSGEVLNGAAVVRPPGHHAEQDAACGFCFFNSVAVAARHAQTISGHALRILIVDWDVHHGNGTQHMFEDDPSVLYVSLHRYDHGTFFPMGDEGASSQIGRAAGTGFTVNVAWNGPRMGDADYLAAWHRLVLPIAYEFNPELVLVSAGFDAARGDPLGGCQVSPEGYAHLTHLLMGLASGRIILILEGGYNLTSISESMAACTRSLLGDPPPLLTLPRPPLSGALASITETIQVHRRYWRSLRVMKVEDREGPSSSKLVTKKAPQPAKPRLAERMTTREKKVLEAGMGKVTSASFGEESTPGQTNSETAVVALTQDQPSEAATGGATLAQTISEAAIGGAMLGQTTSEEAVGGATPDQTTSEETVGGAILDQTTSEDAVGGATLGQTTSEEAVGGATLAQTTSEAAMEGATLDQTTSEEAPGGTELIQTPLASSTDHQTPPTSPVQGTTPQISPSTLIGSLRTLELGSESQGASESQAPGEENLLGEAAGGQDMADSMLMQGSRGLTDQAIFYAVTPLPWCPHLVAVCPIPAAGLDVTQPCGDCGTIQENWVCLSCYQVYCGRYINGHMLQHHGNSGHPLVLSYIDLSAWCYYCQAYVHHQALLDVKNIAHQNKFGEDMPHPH

Homo sapiens [2] = species: Homo sapiens; assay: Selectivity ratio of IC50 for human HDAC1 to IC50 for human HDAC6
MM1.S = assay: Cytotoxicity against human MM1.S cells incubated for 48 hrs by MTT assay; assay type: functional, cell-based
OPM-2 = assay: Cytotoxicity against human OPM-2 cells incubated for 48 hrs by MTT assay; assay type: functional, cell-based; details: OPM-2, 48 h
[3] = target: NAD-dependent protein deacetylase sirtuin-1 (Homo sapiens, UniProt Q96EB6); assay: Inhibition of human sirtuin 1 using fluorogenic HDAC substrate incubated for 20 mins by fluorimetry
NAD-dependent protein deacetylase sirtuin-1, sequence (Q96EB6 whole entry): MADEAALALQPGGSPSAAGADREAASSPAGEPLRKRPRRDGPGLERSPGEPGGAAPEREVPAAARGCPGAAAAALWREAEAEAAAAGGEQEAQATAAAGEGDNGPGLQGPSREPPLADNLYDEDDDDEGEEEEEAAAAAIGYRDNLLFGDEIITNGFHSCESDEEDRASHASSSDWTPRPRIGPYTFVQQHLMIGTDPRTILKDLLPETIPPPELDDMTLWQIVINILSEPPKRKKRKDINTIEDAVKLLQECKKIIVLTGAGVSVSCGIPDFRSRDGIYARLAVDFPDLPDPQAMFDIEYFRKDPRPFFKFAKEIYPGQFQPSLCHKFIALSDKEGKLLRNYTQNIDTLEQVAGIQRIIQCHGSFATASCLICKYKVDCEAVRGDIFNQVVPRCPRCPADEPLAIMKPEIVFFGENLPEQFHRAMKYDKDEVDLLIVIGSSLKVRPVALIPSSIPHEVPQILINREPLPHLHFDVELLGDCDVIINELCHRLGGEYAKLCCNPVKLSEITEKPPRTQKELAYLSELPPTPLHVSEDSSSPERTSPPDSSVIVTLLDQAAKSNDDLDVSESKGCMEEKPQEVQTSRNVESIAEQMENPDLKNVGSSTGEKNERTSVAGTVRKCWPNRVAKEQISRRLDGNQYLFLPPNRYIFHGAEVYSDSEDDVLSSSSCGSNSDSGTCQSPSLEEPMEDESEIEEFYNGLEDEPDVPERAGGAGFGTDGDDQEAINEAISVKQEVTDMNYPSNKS

[4] = target: NAD-dependent protein deacetylase sirtuin-2 (Homo sapiens, UniProt Q8IXJ6); assay: Inhibition of human sirtuin 2 using fluoro-lysine sirtuin 2 deacetylase as substrate incubated for 60 mins by fluorimetry
NAD-dependent protein deacetylase sirtuin-2, sequence (Q8IXJ6 whole entry): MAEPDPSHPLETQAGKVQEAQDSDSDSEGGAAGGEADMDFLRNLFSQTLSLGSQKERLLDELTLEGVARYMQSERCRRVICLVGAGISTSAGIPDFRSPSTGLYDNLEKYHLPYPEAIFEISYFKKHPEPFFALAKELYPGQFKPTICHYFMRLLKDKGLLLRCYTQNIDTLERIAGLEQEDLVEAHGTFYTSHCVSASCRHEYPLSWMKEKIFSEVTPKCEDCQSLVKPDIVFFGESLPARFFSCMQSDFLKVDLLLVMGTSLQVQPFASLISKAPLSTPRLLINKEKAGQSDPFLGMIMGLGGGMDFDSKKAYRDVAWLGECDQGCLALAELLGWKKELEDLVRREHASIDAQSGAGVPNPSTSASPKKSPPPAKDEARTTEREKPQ

Homo sapiens [5] = species: Homo sapiens; assay: Selectivity ratio of IC50 for human HDAC4 to IC50 for human HDAC6
Histone deacetylase 2 = Histone deacetylase 2 (Homo sapiens, UniProt Q92769); assay: Inhibition of human HDAC2 using p53 fluorogenic peptide (379 to 382 residues) RHKKAc as substrate by fluorescence-based assay
Histone deacetylase 2, sequence (Q92769 whole entry, the tested form may be a part): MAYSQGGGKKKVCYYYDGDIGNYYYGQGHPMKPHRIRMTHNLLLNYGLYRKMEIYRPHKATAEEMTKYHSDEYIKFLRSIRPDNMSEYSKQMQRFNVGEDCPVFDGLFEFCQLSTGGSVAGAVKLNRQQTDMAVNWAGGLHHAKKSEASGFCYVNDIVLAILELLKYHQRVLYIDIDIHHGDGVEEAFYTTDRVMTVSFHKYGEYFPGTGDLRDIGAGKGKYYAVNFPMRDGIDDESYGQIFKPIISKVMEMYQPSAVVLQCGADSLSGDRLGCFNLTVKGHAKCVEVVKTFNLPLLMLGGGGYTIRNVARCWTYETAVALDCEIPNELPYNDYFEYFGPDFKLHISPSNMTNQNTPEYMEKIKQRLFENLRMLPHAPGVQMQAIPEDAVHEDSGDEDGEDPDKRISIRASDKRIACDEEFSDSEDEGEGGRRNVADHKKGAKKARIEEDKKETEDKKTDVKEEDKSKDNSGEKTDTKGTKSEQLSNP

[6] = target: T1, Protein deacetylase HDAC6; assay: Inhibition of human HDAC6 using p53 fluorogenic peptide (379 to 382 residues) RHKKAc as substrate by fluorescence-based assay
HCT-116 [7] = assay: Antiproliferative activity against human HCT116 cells incubated for 72 hrs by MTT assay; assay type: functional, cell-based; details: HCT-116, 72 h
Histone deacetylase 1 [8] = target: T2, Histone deacetylase 1 (Homo sapiens, UniProt Q13547); assay: Inhibition of human HDAC1 using p53 fluorogenic peptide (379 to 382 residues) RHKKAc as substrate by fluorescence-based assay
T2 sequence (Q13547 whole entry, the tested form may be a part): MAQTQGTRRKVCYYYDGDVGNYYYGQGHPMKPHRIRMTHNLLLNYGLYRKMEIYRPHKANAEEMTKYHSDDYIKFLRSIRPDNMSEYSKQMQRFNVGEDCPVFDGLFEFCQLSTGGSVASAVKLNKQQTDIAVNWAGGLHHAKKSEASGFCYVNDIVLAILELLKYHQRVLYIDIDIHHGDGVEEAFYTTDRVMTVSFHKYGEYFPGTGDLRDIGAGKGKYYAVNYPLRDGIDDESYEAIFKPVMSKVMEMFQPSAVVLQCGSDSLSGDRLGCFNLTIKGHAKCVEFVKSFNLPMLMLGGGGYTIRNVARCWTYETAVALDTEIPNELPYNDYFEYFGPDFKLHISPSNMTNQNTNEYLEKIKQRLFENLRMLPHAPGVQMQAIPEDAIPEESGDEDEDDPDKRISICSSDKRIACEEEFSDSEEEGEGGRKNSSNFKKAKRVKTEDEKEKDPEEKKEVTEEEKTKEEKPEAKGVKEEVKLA

PC-3 = assay: Antiproliferative activity against human PC3 cells incubated for 72 hrs by MTT assay; assay type: functional, cell-based; details: PC-3, 72 h
SH-SY5Y = assay: Antiproliferative activity against human SH-SY5Y cells incubated for 72 hrs by sulphorhodamine B assay; assay type: functional, cell-based
HCT-116 [9] = assay: Antitumor activity against human HCT116 cells xenografted in BALB/c athymic nude mouse assessed as tumor growth inhibition at 20 mg/kg administered twice daily for 14 days and measuring daily during compound dosing relative to control; assay type: functional; details: HCT-116, 336 h, time 14 day, read-out: TGI
[10] = target: T1, Protein deacetylase HDAC6; assay: Inhibition of HDAC6 (unknown origin) using (AMC)-labelled p53 peptide( 379 to 382 residues) RHKKAc as substrate
KMS-11 = assay: Antiproliferative activity against human KMS-11 cells incubated for 72 hrs by sulphorhodamine B assay; assay type: functional
Histone deacetylase 1 [11] = target: T2, Histone deacetylase 1; assay: Inhibition of HDAC1 (unknown origin) using (AMC)-labelled p53 peptide( 379 to 382 residues) RHKKAc as substrate
HEK293T = assay: Selectivity ratio of IC50 for Flag-tagged HDAC1 (unknown origin) expressed in 293T cells to IC50 for Flag-tagged HDAC6 (unknown origin) expressed in 293T cells; assay type: cell-based; details: Homo sapiens
[12] = target: T1, Protein deacetylase HDAC6; assay: Inhibition of Flag-tagged HDAC6 (unknown origin) expressed in 293T cells using ZMAL as substrate incubated for 180 mins by fluorescence method; parameters: species or system HEK293T

SMILES: COc1cc(C(=O)OCCCCCCCOC(=O)c2ccc(O)c(OC)c2)ccc1O
- IC50 [1]: 200 nM

SMILES: Cc1nc2ccccc2n1Cc1ccc(C(=O)NO)cc1F
- Ratio IC50 (Homo sapiens [2]): 1400

SMILES: O=C(CCCCCCNC(=O)c1cnc(N(c2ccccc2)c2ccccc2)nc1)NO [RICOLINOSTAT]
- IC50 (MM1.S): 2000 nM
- IC50 (OPM-2): 2000 nM
- IC50 [3]: > 1000 nM
- IC50 [4]: > 1000 nM

SMILES: O=C(NO)c1ccc(Cn2c3c(c4ccccc42)CS(=O)(=O)CC3)cc1
- Ratio IC50 (Homo sapiens [2]): 5790
- Ratio IC50 (Homo sapiens [5]): 842

SMILES: O=C(NO)c1ccc(Cn2c(=O)c(F)cn(C3CCCO3)c2=O)cc1 (stereo not given)
- IC50 (Histone deacetylase 2): 5500 nM
- IC50 [6]: 12.4 nM
- IC50 (HCT-116 [7]): 8080 nM
- IC50 (Histone deacetylase 1 [8]): 1710 nM
- IC50 (PC-3): 11400 nM

SMILES: CC(/C=C/C(=O)NO)=C\c1ccc(NS(=O)(=O)c2ccc(N(CCCl)CCCl)cc2)cc1
- IC50 (SH-SY5Y): 280 nM
- inhibition in vivo at 20 mg/kg (HCT-116 [9]): 78%
- IC50 [10]: 479 nM
- GI50 (KMS-11): 480 nM
- IC50 (Histone deacetylase 1 [11]): 14000 nM

SMILES: COC(=O)[C@@H](Cc1ccccn1)NC(=O)CCCCCCC(=O)NO
- Ratio IC50 (HEK293T): 20
- IC50 [12]: 4010 nM
